Results reported in US20160025704A1, “METHODS FOR IDENTIFYING NEUROPROTECTIVE PKC ACTIVATORS” (priority 2013, published 2016).

Tests used:
PKC-ε = target: T1, PKC-ε (Mus musculus, UniProt P16054); assay: PKC-ε activation and translocation by bryostatin in mouse brain (Western blot); type: in vivo
T1 construct: from tissue; host or cells: brain of C57BL/6 mice
T1 sequence (P16054 1-737): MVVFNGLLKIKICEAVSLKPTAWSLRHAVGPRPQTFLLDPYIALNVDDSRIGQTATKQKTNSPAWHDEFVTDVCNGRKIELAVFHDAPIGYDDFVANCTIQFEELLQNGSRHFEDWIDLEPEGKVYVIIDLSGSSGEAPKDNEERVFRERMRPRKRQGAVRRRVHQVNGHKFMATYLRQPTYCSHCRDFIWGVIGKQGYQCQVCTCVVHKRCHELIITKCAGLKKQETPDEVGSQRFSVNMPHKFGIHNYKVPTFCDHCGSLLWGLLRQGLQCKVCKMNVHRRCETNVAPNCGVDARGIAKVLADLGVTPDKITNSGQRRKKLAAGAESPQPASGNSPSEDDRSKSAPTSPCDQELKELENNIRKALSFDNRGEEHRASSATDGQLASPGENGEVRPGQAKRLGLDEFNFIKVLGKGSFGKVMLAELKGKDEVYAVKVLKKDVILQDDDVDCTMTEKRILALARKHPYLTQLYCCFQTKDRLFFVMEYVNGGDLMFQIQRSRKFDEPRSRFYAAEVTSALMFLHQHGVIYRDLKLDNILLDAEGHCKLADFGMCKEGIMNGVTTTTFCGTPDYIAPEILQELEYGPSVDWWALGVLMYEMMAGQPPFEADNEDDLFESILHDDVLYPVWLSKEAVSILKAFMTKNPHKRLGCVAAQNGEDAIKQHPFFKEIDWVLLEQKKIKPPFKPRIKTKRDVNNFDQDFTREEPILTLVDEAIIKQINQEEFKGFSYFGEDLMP
Experimental: Protocol: Male C57BL/6M mice (15-20 g, Charles River) were acclimatized for 7-8 days in a non-enriched environment, three mice per cage. Bryostatin (Tocris) was dissolved in DMSO, diluted into 0.9% saline, and injected into the tail vein at doses of 10 and 15 μg/m2. After a fixed period, the mice were anesthetized with CO2 and the brain was frozen on dry ice. Blood was mixed with 0.2 ml 1 mM EDTA in PBS, centrifuged at 100 g for 30 min, and plasma was frozen on dry ice. In some experiments, blood lymphocyte fractions were collected using Ficoll-Paque Plus reagent using the procedure recommended by the manufacturer. All animal procedures were approved by the institutional IACUC.
Activation and translocation of PKC-ε were measured by Western blotting after subcellular fractionation into cytosol and particulate fractions. Homogenates were centrifuged at 100,000×g for 20 min and cytosolic and particulate fractions were separated on 4-20% Tris-glycine SDS polyacrylamide gels, blotted onto nitrocellulose, and probed with isozyme specific antibodies. The blots were photographed in a GE ImageQuant at 16 bits/pixel and analyzed by vertical strip densitometry using Imal Unix software.
Bryostatin was injected into the tail vein of C57BL/6N mice at 10 and 15 μg/m2 (equivalent to 3.50 and 5.25 μg/kg), and brain PKC-ε concentration was measured using Western blots. Brain PKC-ε activation was biphasic, peaking at 0.5 h and slowly declined toward resting levels, even though bryostatin levels continued to increase. This is consistent with the short-lived activation of PKC established previously. […] The bryostatin concentration at 0.5 h was 0.029 nM.
The results of a dose dependence study of activation of PKCα and PKCε translocation by bryostatin, are shown below in FIG. 4 (measured 30 minutes after administration), and FIG. 5 (measured 120 minutes after administration). The effect of bryostatin on brain PKC translocation (an indicator of enzymatic activation) was also biphasic, with maximal effects observed at doses between 5 and 10 μg/m2.

[1] = clinical trials, Varterasian et al. 2000; cited from earlier work
[2] = test system: healthy brown Norway rats; assay: Mushroom spine formation in healthy rats after water maze training; type: in vivo; details: given during water maze training
Description: Protocol: Non-diseased, healthy brown Norway rats (at 4-5 months old) were used in this study. Bryostatin enhanced the formation of mushroom spines in healthy rats after water maze training as shown in a-e. Memory retention after water maze training (4 swims per days for 5 days) increased the number of mushroom dendritic spine and synapses with (e) perforated postsynaptic densities (PSDs), but not with macular PSDs (d). […] Nv=naîve controls; Sw=swim controls; Mz=water maze treatment; and Mz/Br=water maze treatment plus bryostatin treatment.

HuC and HuD proteins = assay: Dendritic spines, presynaptic vesicles and HuC/HuD nuclear export in healthy rats after water maze training; type: in vivo; details: 10 μg/kg body weight intraperitoneal, 3 doses every other day; two days after 6-days of training
Experimental: Protocol: Non-diseased, healthy brown Norway rats (at 4-5 months old) were used in this study. Two days after 6-days of training, increases in dendritic spines (a, b) and presynaptic vesicle concentration (a, d) within unchanged axonal bouton density (a, c) were correlated with an increase in the nuclear export of HuC and HuD proteins into the dendritic shaft as compared with naive and swim controls (a, e). Those changes were enhanced with bryostatin treatment (10 μg/kg body weight, intraperitoneal injection, 3 doses every other day). Nv=naîve controls; Sw=swim controls; Mz=water maze treatment; and Mz/Br=water maze treatment plus bryostatin treatment).

PKC-α = target: T2, PKC-α (Mus musculus, UniProt P20444); assay: PKC-α translocation by bryostatin in mouse brain (Western blot); type: in vivo; details: 30 and 120 minutes after administration
T2 construct: The effect of bryostatin on brain PKC translocation; from tissue; host or cells: brain of C57BL/6 mice

[3] = postischemic/hypoxic treatment; Sun and Alkon 2008; cited from earlier work
Tg2576 mice = assay: Dendritic spines and synapses in hippocampal CA1 area of Tg2576 mice; type: in vivo
mTBI mice = assay: Minimal traumatic brain injury, MWM cognitive test; type: in vivo; details: 5× i.p. over 14 days; for mTBI induced learning deficits (MWM): injured mice
Experimental: Protocol: One hour after the minimal traumatic brain injury was induced, the mice received a 5×i.p. bryostatin-1 injection treatment over a period of 14 days, in two injection doses 20 and 30 μg/kg (N=9 in each group). One hour after the last injection of the series, the cognitive ability of the mice was tested in the MWM. Mice were tested for 4 days 6 times a day. On day 5 the platform was removed and the mice memory retention was tested. […] Data was analyzed using repeated measure one way ANOVA and presented as mean±S.E.M. Both doses protected the learning abilities of the injured mice (pb0.01).

[4] = 30 μg/kg intraperitoneal twice a week from 2 months old, analysis at five months

For `CCC/C=C/C=C/C(=O)O[C@H]1/C(=C/C(=O)OC)C[C@H]2C[C@H]([C@@H](C)O)OC(=O)C[C@H](O)C[C@@H]3C[C@H](OC(C)=O)C(C)(C)[C@](O)(C[C@@H]4C/C(=C/C(=O)OC)C[C@H](/C=C/C(C)(C)[C@]1(O)O2)O4)O3` [Bryostatin, bryostatin-1], the “PKC-ε translocation in mouse brain” value (PKC-ε; 30 and 120 minutes after administration) was “translocation was only observed by PKC-ε”, the “downregulation of brain PKC-ε” value (PKC-ε; tail vein 10 and 15 μg/m2, C57BL/6N mice) was “No downregulation below starting values was observed” and the “time of peak brain PKC-ε activation” value (PKC-ε; tail vein 10 and 15 μg/m2, C57BL/6N mice, biphasic) was 0.5 h. The tumor growth promotion [1] was “does not promote tumor growth”, the “mushroom spines with macular PSDs” value [2] was “significantly increased” and the “mushroom spines with perforated PSDs” value [2] was “enhanced”. For the same compound, the “training-induced increases in dendritic spines, presynaptic vesicle concentration and nuclear export of HuC and HuD proteins” value (HuC and HuD proteins) was “enhanced”, the “PKC-α translocation in mouse brain” value (PKC-α) was “translocation was only observed by PKC-ε” and the “ischemia-induced deficits in synaptogenesis, neurotrophic activity, and spatial learning and memory” value [3] was “effectively rescued ischemia-induced deficits in synaptogenesis, neurotrophic activity, and spatial learning and memory”. For the same compound, the “mushroom spine-shape dendritic spines” value (Tg2576 mice; [4]) was “prevented decreases in mushroom spine-shape dendritic spines”, the “synapses (electron microscopy)” value (Tg2576 mice; [4]) was “prevented decreases” and the “loss of postsynaptic dendritic spines and synapses in the hippocampal CA1 area” value (Tg2576 mice; Tg2576 mice at 5 months old (FIG. 19)) was “protects against the loss of postsynaptic dendritic spines and synapses”. The “acquisition of the learning task, mTBI group versus control mice” value (mTBI mice; 20 μg/kg) was “improved their acquisition of the learning task even beyond that of control mice”, the “learning of control uninjured mice” value (mTBI mice; 20 μg/kg) was “no effect on uninjured mice” and the “mTBI induced learning deficits (MWM)” value (mTBI mice; 20 μg/kg) was “protected against the mTBI induced learning deficits”. For the same compound, the “learning of control uninjured mice” value (mTBI mice; 30 μg/kg) was “improved the learning of control uninjured mice” and the “mTBI induced learning deficits (MWM)” value (mTBI mice; 30 μg/kg) was “protected against the mTBI induced learning deficits”.
